Experimental data taken from ChEMBL document CHEMBL4507293 (2021).

Experiments:
[1] = test system: Mast/stem cell growth factor receptor Kit (Homo sapiens), P10721 [L576P]; settings: Compound concentration 100.0 nM
[2] = test system: Epidermal growth factor receptor (Homo sapiens), P00533 [UNDEFINED MUTATION]; settings: Compound concentration 100.0 nM
[3] = molecular target: Serine/threonine-protein kinase haspin (Homo sapiens) (UniProt Q8TF76); settings: Compound concentration 100.0 nM
[4] = molecular target: Mitogen-activated protein kinase 1 (Homo sapiens) (UniProt P28482); settings: Compound concentration 100.0 nM
[5] = molecular target: Tyrosine-protein kinase HCK (Homo sapiens) (UniProt P08631); settings: Compound concentration 100.0 nM
[6] = molecular target: Ribosomal protein S6 kinase beta-1 (Homo sapiens) (UniProt P23443); settings: Compound concentration 100.0 nM
Sequence of Ribosomal protein S6 kinase beta-1 (Homo sapiens) (P23443 whole entry, looked up): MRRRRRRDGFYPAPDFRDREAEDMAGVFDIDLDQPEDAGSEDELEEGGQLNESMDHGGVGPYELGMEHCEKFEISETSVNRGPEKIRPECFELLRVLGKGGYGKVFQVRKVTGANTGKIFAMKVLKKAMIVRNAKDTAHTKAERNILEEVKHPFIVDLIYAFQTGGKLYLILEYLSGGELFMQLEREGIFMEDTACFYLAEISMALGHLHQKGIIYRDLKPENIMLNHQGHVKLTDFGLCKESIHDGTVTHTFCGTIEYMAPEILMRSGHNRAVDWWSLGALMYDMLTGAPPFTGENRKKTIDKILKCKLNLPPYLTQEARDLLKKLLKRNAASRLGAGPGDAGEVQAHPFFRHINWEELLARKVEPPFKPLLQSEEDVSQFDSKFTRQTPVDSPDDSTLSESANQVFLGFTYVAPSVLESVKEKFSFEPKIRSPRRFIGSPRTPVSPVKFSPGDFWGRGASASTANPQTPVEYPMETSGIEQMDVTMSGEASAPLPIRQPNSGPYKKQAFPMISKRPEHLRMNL

[7] = molecular target: Serine/threonine-protein kinase Nek5 (Homo sapiens) (UniProt Q6P3R8); settings: Compound concentration 100.0 nM
Sequence of Serine/threonine-protein kinase Nek5 (Homo sapiens) (Q6P3R8 whole entry): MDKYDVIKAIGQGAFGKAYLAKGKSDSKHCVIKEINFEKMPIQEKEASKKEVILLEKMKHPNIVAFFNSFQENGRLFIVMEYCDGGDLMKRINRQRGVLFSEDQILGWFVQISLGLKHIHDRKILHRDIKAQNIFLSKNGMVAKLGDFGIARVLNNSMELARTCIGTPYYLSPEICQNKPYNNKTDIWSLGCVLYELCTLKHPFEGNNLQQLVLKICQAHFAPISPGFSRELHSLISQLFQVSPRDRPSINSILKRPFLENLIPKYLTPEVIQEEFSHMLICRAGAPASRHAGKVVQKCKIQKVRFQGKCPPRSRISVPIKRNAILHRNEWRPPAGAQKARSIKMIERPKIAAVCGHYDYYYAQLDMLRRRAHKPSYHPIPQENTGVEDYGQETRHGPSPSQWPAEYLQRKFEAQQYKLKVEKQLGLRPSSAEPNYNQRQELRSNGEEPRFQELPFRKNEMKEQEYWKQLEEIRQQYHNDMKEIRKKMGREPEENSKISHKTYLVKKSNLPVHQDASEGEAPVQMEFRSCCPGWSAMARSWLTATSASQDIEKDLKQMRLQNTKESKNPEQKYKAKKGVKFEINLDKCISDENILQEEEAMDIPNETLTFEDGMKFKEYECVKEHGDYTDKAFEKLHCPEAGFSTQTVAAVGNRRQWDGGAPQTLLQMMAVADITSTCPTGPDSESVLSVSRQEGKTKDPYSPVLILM

[8] = molecular target: Mast/stem cell growth factor receptor Kit (Homo sapiens) (UniProt P10721); settings: Compound concentration 100.0 nM
[9] = molecular target: Serine/threonine-protein kinase Sgk2 (Homo sapiens) (UniProt Q9HBY8); settings: Compound concentration 100.0 nM
[10] = molecular target: RAF proto-oncogene serine/threonine-protein kinase (Homo sapiens) (UniProt P04049); settings: Compound concentration 100.0 nM
[11] = molecular target: Mitogen-activated protein kinase 8 (Homo sapiens) (UniProt P45983); settings: Compound concentration 100.0 nM
[12] = molecular target: MAP kinase-activated protein kinase 5 (Homo sapiens) (UniProt Q8IW41); settings: Compound concentration 100.0 nM
Sequence of MAP kinase-activated protein kinase 5 (Homo sapiens) (Q8IW41 whole entry): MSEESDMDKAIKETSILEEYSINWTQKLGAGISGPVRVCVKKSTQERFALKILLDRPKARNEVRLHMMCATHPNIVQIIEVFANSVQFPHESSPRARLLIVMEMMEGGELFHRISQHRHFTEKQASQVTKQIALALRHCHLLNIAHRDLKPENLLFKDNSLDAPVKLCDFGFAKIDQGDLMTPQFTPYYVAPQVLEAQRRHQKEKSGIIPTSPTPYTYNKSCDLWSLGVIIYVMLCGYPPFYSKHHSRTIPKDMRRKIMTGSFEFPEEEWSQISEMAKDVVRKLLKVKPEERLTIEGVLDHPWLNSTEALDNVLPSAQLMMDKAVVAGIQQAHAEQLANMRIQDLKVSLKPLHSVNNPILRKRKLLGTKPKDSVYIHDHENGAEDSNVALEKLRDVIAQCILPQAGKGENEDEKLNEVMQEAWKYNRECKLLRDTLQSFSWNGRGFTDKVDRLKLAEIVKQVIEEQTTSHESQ

[13] = molecular target: Ephrin type-A receptor 8 (Homo sapiens) (UniProt P29322); settings: Compound concentration 100.0 nM
Sequence of Ephrin type-A receptor 8 (Homo sapiens) (P29322 whole entry): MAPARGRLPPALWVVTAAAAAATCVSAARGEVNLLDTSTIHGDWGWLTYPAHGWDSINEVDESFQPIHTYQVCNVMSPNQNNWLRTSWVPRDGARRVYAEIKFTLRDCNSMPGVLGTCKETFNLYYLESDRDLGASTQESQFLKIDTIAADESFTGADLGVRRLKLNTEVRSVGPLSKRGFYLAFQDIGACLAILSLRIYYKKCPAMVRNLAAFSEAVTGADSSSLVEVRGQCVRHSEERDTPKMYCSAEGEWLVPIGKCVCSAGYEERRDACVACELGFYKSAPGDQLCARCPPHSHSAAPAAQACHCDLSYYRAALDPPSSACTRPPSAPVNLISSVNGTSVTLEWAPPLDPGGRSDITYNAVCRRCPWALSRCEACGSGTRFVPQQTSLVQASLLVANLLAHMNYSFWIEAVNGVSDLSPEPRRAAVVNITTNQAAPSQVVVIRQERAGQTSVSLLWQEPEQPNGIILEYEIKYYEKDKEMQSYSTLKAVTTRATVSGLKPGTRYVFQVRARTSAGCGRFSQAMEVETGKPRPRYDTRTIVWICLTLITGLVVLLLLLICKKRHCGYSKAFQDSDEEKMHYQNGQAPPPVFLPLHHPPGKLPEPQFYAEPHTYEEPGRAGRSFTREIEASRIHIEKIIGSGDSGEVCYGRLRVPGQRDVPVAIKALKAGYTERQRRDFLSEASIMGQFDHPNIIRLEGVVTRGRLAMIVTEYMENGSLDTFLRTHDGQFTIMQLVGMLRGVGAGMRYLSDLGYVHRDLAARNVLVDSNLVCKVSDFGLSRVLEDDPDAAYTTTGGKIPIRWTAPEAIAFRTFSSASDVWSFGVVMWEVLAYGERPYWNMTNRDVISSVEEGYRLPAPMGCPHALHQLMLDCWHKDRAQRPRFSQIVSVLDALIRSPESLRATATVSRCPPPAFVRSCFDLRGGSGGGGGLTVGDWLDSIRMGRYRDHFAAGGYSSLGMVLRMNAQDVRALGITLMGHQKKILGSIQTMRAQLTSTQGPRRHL

[14] = molecular target: SNF-related serine/threonine-protein kinase (Homo sapiens) (UniProt Q9NRH2); settings: Compound concentration 100.0 nM
[15] = molecular target: Serine/threonine-protein kinase ICK (Homo sapiens) (UniProt Q9UPZ9); settings: Compound concentration 100.0 nM
[16] = molecular target: Mitogen-activated protein kinase kinase kinase 12 (Homo sapiens) (UniProt Q12852); settings: Compound concentration 100.0 nM
Sequence of Mitogen-activated protein kinase kinase kinase 12 (Homo sapiens) (Q12852 whole entry): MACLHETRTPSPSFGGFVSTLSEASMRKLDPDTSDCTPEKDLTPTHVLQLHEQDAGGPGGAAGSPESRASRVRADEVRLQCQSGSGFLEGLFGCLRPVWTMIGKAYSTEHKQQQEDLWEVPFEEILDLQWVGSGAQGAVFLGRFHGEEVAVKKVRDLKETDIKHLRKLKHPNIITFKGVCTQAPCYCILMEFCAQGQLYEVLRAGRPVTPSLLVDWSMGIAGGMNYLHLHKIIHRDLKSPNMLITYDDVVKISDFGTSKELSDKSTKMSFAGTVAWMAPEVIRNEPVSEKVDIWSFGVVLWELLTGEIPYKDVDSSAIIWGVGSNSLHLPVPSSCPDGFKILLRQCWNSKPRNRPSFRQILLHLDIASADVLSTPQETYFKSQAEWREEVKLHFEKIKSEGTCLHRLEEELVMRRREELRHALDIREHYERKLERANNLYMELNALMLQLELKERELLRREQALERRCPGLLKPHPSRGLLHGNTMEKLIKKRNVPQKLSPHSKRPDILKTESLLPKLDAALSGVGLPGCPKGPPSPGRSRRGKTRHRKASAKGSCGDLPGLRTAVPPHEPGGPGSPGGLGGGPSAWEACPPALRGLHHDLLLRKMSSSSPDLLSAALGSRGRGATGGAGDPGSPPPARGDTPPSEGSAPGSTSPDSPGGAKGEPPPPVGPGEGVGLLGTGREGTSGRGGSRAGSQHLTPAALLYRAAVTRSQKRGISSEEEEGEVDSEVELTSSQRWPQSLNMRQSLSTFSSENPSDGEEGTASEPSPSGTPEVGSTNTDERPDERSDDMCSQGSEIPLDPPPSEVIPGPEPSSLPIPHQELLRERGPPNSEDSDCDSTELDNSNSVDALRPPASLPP

[17] = molecular target: T1, Alpha-2C adrenergic receptor (Homo sapiens) (UniProt P18825); settings: Compound concentration 10.0 uM
T1 sequence (whole entry): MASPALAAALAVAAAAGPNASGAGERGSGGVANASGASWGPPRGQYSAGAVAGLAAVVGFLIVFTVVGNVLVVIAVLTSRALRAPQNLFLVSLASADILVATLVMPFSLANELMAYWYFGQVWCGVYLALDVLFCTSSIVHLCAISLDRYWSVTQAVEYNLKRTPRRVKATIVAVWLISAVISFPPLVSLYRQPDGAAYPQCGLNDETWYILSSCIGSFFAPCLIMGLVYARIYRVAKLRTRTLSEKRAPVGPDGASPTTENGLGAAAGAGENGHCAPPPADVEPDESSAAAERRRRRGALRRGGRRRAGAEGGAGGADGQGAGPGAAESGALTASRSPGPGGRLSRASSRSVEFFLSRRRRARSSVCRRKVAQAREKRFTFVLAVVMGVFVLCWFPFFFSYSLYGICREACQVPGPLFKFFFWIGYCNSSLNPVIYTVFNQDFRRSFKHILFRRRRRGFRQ

[18] = molecular target: Rho-associated protein kinase 1 (Homo sapiens) (UniProt Q13464); settings: Compound concentration 100.0 nM
[19] = molecular target: Phosphorylase b kinase gamma catalytic chain, skeletal muscle/heart isoform (Homo sapiens) (UniProt Q16816); settings: Compound concentration 100.0 nM
[20] = molecular target: Cyclin-dependent kinase-like 1 (Homo sapiens) (UniProt Q00532); settings: Compound concentration 100.0 nM
[21] = molecular target: T2, Muscarinic acetylcholine receptor M5 (Homo sapiens) (UniProt P08912); settings: Compound concentration 10.0 uM
T2 sequence (whole entry): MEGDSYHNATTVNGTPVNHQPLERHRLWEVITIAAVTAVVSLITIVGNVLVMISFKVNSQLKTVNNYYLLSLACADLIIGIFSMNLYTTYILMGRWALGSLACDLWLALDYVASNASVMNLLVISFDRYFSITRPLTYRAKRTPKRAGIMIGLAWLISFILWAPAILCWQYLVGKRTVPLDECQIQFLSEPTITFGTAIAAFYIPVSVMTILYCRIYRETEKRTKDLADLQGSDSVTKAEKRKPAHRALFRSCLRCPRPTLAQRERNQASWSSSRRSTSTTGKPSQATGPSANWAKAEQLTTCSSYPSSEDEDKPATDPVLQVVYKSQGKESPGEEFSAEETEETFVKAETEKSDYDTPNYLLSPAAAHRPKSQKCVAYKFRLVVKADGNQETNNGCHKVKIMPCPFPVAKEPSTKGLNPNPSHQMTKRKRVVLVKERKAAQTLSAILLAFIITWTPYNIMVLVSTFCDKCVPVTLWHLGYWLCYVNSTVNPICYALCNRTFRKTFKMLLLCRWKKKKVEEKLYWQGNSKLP

[22] = molecular target: Protein kinase C delta type (Homo sapiens) (UniProt Q05655); settings: Compound concentration 100.0 nM
Sequence of Protein kinase C delta type (Homo sapiens) (Q05655 whole entry, looked up): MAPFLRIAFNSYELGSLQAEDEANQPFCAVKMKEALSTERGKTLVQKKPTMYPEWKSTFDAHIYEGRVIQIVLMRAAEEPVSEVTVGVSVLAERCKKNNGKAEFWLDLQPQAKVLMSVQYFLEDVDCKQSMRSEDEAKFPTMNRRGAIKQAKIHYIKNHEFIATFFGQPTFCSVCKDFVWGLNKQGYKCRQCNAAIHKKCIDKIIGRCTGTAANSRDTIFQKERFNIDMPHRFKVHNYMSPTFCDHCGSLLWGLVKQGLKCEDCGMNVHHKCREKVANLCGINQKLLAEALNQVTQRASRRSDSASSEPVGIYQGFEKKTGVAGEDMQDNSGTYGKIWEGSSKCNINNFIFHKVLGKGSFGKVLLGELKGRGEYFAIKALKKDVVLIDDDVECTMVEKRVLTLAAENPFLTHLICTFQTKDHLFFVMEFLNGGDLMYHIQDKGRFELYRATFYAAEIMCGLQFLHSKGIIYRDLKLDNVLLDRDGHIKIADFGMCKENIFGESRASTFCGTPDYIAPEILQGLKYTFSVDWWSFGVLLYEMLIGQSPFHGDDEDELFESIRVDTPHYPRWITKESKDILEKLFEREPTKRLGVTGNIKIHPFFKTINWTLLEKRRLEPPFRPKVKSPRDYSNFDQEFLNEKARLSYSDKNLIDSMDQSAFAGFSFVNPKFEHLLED

[23] = molecular target: Serine/threonine-protein kinase WNK3 (Homo sapiens) (UniProt Q9BYP7); settings: Compound concentration 100.0 nM
[24] = molecular target: Cyclin-dependent kinase 4 (Homo sapiens) (UniProt P11802); settings: Compound concentration 100.0 nM
[25] = molecular target: Aurora kinase B (Homo sapiens) (UniProt Q96GD4); settings: Compound concentration 100.0 nM
[26] = molecular target: Dual specificity mitogen-activated protein kinase kinase 5 (Homo sapiens) (UniProt Q13163); settings: Compound concentration 100.0 nM
[27] = molecular target: Serine/threonine-protein kinase 32A (Homo sapiens) (UniProt Q8WU08); settings: Compound concentration 100.0 nM
[28] = molecular target: Serine/threonine-protein kinase 38 (Homo sapiens) (UniProt Q15208); settings: Compound concentration 100.0 nM
[29] = molecular target: Testis-specific serine/threonine-protein kinase 3 (Homo sapiens) (UniProt Q96PN8); settings: Compound concentration 100.0 nM
[30] = molecular target: Serine/threonine-protein kinase 10 (Homo sapiens) (UniProt O94804); settings: Compound concentration 100.0 nM
[31] = molecular target: Calcium/calmodulin-dependent protein kinase type II subunit beta (Homo sapiens) (UniProt Q13554); settings: Compound concentration 100.0 nM
Sequence of Calcium/calmodulin-dependent protein kinase type II subunit beta (Homo sapiens) (Q13554 whole entry): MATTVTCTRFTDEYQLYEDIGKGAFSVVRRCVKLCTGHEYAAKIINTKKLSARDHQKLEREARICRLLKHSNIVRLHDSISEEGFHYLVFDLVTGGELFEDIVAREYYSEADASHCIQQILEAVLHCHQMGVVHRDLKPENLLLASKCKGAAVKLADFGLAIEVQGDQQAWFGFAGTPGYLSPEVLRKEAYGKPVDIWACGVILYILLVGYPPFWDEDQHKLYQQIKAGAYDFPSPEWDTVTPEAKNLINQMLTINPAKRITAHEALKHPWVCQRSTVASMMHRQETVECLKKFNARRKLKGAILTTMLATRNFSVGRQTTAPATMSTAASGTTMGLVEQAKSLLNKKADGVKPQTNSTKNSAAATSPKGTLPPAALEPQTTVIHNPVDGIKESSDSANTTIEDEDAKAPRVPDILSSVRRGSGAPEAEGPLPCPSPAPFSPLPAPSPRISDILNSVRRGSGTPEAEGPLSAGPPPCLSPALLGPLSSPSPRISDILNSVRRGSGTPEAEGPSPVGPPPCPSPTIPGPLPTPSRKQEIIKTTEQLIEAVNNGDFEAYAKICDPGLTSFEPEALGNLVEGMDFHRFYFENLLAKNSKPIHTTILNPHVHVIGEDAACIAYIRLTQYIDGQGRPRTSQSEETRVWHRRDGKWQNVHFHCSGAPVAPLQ

[32] = molecular target: Ribosomal protein S6 kinase alpha-1 (Homo sapiens) (UniProt Q15418); settings: Compound concentration 100.0 nM

COCCOc1nc(-c2ccc(Cl)nc2)nc2c1CN(C(=O)c1ncn3ccccc13)CC2 [THPP-1]
inactive: residual activity [1] 100% | residual activity [2] 85% | residual activity [3] 100% | residual activity [4] 95% | residual activity [5] 100% | residual activity [6] 100% | residual activity [7] 100% | residual activity [8] 100% | residual activity [9] 88% | residual activity [10] 97% | residual activity [11] 100% | residual activity [12] 100% | residual activity [13] 100% | residual activity [14] 79% | residual activity [15] 100% | residual activity [16] 97% | inhibition [17] 1.3% | residual activity [18] 93% | residual activity [19] 100% | residual activity [20] 61% | inhibition [21] 7.79% | residual activity [22] 100% | residual activity [23] 100% | residual activity [24] 96% | residual activity [25] 97% | residual activity [26] 100% | residual activity [27] 83% | residual activity [28] 100% | residual activity [29] 100% | residual activity [30] 100% | residual activity [31] 100% | residual activity [32] 100%

CC(C)CC(=O)N1CCc2nc(-c3ccc(Br)cc3)nc(N(C)Cc3ccccc3)c2C1 [THPP-1-NC]
inactive: residual activity [1] 94% | residual activity [2] 100% | residual activity [3] 100% | residual activity [4] 93% | residual activity [5] 94% | residual activity [6] 100% | residual activity [7] 100% | residual activity [8] 100% | residual activity [9] 94% | residual activity [10] 100% | residual activity [11] 100% | residual activity [12] 100% | residual activity [13] 100% | residual activity [14] 84% | residual activity [15] 100% | residual activity [16] 90% | inhibition [17] 48% | residual activity [18] 78% | residual activity [19] 100% | residual activity [20] 63% | inhibition [21] 7.59% | residual activity [22] 100% | residual activity [23] 100% | residual activity [24] 85% | residual activity [25] 92% | residual activity [26] 98% | residual activity [27] 94% | residual activity [28] 100% | residual activity [29] 100% | residual activity [30] 100% | residual activity [31] 100% | residual activity [32] 93%
